Assay results from ChEMBL document CHEMBL1201862, “PubChem BioAssay data set” (2004).
Active and inactive are the calls of the source.

Tests used:
[1] = target: T1, Short transient receptor potential channel 4 (Mus musculus, UniProt Q9QUQ5); assay: mouse TRPC4 channel activators, dose response, cell-based, HEK293 TRPC4/mu-opioid, Fluo-4 calcium (AID 434937); assay type: functional
T1 sequence (Q9QUQ5 whole entry): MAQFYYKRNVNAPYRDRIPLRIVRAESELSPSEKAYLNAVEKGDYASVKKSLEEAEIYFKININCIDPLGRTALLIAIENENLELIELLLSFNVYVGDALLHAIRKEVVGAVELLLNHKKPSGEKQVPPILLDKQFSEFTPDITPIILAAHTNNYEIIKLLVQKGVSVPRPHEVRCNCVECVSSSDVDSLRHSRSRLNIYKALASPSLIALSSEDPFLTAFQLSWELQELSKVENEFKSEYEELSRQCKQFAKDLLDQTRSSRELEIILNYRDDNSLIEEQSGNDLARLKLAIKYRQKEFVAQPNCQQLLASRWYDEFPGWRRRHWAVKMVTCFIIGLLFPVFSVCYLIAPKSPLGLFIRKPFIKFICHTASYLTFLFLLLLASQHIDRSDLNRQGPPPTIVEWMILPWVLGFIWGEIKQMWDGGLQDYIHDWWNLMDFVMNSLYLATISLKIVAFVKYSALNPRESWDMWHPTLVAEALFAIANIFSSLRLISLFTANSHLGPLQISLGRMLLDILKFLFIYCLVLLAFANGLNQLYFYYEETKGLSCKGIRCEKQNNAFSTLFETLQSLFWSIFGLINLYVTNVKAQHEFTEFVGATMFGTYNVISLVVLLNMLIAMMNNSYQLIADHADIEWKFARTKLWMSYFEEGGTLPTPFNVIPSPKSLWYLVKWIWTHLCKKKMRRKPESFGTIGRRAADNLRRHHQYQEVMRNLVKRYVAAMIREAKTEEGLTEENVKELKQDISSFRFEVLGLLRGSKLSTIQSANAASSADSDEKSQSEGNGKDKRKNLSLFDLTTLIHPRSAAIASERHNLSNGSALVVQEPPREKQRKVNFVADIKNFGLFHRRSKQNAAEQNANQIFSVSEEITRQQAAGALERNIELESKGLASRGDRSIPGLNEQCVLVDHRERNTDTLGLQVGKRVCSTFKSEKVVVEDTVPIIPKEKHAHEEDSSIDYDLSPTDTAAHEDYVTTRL

[2] = target: Glyceraldehyde-3-phosphate dehydrogenase (Homo sapiens, UniProt P04406)
Bcl-2-related protein A1 [3] = target: T2, Bcl-2-related protein A1 (Mus musculus, UniProt Q07440); assay: Bfl-1 inhibitors blocking BH3 peptide binding, confirmation, biochemical, TR-FRET, mouse Bfl-1 (AID 621);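 also: TR-FRET binding of GST-Bfl-1 to FITC-labelled Bid peptide via terbium antibody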
T2 sequence (Q07440 whole entry): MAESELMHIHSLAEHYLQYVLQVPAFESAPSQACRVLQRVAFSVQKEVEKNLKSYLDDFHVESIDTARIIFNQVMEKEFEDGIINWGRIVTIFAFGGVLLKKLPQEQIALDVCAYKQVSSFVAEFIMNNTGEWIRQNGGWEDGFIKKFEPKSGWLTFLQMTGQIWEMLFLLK

Bcl-2-related protein A1 [4] = target: T2, Bcl-2-related protein A1; assay: Bfl-1 binding inhibitors, SAR follow-up, biochemical, fluorescence polarization (AID 1070)
[5] = target: G-protein coupled receptor 55 (Homo sapiens, UniProt Q9Y2T6); assay: GPR55 agonists via beta-arrestin recruitment, primary screen, imaging, U2OS cells, beta-arrestin-GFP redistribution (AID 1961); assay type: functional
[6] = target: Intestinal-type alkaline phosphatase (Homo sapiens, UniProt P09923); assay: Dose Response confirmation of uHTS hits from a small molecule inhibitors of human intestinal alkaline phosphatase via a luminescent assay. [Related pubchem assays (depositor defined):AID2544, AID2574]; assay type: functional
[7] = target: Luciferin 4-monooxygenase (Photinus pyralis, UniProt P08659); assay: firefly luciferase enzyme inhibitors, dose response, biochemical, luminescence (AID 1891)
[8] = Luminescence Cell-Based Dose Confirmation HTS to Identify Inhibitors of Platelet Dense Granule Release. [Related pubchem assays: 1663 (Primary HTS), 1678 (Summary of Project)]; assay type: functional
[9] = target: T3, Calpain-2 catalytic subunit (Sus scrofa, UniProt P43367); assay: pig calpain II inhibitor potency, dose response, biochemical, fluorogenic peptide substrate (AID 1420); assay type: functional
T3 sequence (P43367 whole entry): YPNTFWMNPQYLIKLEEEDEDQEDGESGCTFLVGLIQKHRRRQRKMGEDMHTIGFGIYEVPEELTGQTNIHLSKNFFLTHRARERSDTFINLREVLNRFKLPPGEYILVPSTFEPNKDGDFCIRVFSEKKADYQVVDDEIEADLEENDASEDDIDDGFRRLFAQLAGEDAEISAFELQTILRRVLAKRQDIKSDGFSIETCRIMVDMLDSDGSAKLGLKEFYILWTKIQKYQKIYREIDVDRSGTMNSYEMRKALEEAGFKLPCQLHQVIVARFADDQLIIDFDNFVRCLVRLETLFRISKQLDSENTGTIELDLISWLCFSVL

Nonstructural protein 1 = Nonstructural protein 1 (Influenza A virus, UniProt Q194T2); assay type: functional, Influenza A virus (A/California/07/2009(H1N1))
HEK293 [10] = assay: NOD1 signaling inhibitors, primary screen, cell-based, luminescence, uHTS (AID 1578); assay type: functional; conditions: Homo sapiens
HEK293 [11] = assay: cells; assay type: functional, cell-based; conditions: Homo sapiens
HEK293 [12] = assay: cells; assay type: functional, cell-based; conditions: Homo sapiens; remark: listed apart in the source
[13] = target: Nucleotide-binding oligomerization domain-containing protein 2 (Homo sapiens, UniProt Q9HC29); assay: NOD2 signaling inhibitors, cell-based, luminescence, uHTS, HEK293 (AID 1566); assay type: functional
HEK293 [14] = assay: NOD2 signaling inhibitors in MDP-stimulated cells, cell-based, uHTS, luminescence (AID 2001); assay type: functional; conditions: Homo sapiens
HEK293 [15] = assay: cells; assay type: functional, cell-based; conditions: Homo sapiens; remark: listed apart in the source
[16] = Shn3 3'UTR reporter inhibitors, dose response, cell-based, Clone20 osteoblasts, firefly luciferase, cherry-picked (AID 624132); assay type: functional;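 also: firefly luciferase luminescence from reporter carrying the Shn3 3'UTR in osteoblasts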
[17] = HepG2 cell cytotoxicity, dose response, cytotoxicity control for Shn3 inhibitor project, CellTiter-Glo, cherry-picked (AID 624134); assay type: functional, cell-based
[18] = control 3'UTR Renilla luciferase suppression, dose response, counter-screen for Shn3 inhibitor project, cell-based, Clone20-Shn3RL, cherry-picked (AID 624133); assay type: functional
[19] = ZM109 Env clade C HIV-1 fusion inhibitors, dose response, HeLa effector, CEM target cells, luciferase, cherry-pick (AID 652058); assay type: functional, cell-based
[20] = inhibitors of clade B AD8 Env fusion, dose response, cell-based, cherry-pick (AID 652062); assay type: functional;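 also: luciferase signal from cell-cell fusion driven by HIV-1 clade B AD8 Env; potency is for inhibitors of fusion seen as a drop in luminescence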

Chain of G-protein coupled receptor 55 (Q9Y2T6 whole entry): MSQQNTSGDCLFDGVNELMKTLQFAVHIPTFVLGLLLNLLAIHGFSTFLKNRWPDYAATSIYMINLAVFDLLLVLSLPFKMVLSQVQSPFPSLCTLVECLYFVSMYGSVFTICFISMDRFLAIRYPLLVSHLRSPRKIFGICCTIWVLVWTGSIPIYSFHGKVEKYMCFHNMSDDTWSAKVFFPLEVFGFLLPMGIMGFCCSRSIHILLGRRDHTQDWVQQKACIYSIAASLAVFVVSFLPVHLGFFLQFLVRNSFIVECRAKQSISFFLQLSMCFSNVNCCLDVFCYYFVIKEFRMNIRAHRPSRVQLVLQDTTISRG
Chain of Intestinal-type alkaline phosphatase (P09923 whole entry): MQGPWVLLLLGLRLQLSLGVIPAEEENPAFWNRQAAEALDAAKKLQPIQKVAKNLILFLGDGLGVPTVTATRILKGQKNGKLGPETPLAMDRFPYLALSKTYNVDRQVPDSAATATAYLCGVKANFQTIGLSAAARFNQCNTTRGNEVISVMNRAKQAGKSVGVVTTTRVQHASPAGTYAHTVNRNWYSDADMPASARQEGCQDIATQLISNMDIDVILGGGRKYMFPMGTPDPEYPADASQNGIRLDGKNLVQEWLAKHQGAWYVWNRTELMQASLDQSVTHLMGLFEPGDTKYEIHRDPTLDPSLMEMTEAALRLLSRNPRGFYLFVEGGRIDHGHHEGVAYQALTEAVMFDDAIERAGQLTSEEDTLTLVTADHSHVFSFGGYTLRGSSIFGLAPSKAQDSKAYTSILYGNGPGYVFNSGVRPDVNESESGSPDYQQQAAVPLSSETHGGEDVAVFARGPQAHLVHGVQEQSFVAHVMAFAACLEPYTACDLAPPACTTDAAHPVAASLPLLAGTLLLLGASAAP
Chain of Nonstructural protein 1 (Q194T2 whole entry): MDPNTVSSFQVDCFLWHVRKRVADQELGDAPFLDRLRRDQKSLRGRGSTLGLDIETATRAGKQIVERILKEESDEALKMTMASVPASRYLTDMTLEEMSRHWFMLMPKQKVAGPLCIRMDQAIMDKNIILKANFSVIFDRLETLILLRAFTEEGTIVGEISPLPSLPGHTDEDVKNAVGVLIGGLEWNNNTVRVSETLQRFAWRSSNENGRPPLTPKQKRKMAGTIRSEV
Chain of Glyceraldehyde-3-phosphate dehydrogenase (P04406 whole entry): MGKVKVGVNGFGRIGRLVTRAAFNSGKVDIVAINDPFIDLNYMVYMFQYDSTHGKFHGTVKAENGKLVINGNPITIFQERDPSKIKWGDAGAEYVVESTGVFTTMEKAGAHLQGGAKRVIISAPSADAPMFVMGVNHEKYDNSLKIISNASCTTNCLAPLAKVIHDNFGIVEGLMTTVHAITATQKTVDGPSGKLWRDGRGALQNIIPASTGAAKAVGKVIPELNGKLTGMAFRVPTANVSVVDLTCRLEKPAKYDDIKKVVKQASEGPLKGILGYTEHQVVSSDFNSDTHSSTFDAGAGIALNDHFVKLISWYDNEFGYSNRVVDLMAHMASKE
Chain of Luciferin 4-monooxygenase (P08659 whole entry): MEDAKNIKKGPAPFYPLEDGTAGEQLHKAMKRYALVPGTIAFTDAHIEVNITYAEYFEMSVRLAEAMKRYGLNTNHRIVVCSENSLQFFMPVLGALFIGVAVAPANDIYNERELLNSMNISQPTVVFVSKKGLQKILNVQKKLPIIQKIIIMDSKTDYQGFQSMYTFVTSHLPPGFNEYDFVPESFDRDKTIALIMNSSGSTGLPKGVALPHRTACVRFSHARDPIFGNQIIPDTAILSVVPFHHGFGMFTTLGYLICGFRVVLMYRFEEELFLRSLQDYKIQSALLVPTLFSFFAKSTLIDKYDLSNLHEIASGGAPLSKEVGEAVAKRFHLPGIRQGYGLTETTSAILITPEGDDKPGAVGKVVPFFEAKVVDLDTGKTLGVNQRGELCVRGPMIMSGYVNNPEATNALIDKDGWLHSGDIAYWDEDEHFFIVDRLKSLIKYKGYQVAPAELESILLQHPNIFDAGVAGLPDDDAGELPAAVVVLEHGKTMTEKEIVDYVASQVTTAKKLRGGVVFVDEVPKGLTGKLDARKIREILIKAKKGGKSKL
Chain of Nucleotide-binding oligomerization domain-containing protein 2 (Q9HC29 whole entry, the tested form may be a part): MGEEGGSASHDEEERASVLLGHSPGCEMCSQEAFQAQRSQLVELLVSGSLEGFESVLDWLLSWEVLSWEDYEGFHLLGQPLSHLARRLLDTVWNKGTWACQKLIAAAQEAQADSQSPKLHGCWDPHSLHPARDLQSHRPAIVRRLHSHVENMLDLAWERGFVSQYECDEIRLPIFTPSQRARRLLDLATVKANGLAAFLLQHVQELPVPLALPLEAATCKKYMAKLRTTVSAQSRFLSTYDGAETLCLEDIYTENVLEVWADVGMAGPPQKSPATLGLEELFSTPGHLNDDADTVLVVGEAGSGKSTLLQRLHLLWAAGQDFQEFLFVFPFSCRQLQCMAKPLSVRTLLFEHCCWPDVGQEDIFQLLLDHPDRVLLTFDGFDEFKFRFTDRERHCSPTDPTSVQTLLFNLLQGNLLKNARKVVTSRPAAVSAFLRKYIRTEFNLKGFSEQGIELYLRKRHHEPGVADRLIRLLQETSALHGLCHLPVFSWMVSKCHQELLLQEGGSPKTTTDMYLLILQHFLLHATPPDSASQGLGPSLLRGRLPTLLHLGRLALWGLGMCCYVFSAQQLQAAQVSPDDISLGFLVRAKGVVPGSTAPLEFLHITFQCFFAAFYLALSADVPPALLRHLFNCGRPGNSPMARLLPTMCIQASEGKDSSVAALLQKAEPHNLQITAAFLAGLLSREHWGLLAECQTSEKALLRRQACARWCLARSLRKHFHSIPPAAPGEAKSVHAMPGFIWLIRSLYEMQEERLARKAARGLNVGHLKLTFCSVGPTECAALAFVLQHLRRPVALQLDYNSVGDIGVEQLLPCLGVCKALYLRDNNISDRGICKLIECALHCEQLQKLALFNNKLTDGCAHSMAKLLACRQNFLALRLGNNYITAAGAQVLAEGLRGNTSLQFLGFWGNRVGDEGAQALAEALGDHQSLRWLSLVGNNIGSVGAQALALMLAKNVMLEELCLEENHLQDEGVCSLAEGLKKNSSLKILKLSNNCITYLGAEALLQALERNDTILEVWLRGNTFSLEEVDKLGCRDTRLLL

**Q.** Which EC50 [1] does the source give for `Cc1ccc(-n2cc(CNCC3CC(=O)N(C4CC4)C3)c(-c3cccc(C)c3)n2)cc1` (stereo unspecified) here?
**A.** The EC50 was 6.68 µM (active).

**Q.** For `CN1CCN(C2=C(Cl)C(=O)N(c3cccc(Cl)c3Cl)C2=O)CC1`, which IC50 [2] is on record?
**A.** The IC50 was > 100 µM (not active).

**Q.** What about the IC50 (Bcl-2-related protein A1 [3]) of the same compound?
**A.** The IC50 was 2.56 µM (active).

**Q.** And the IC50 (Bcl-2-related protein A1 [4])?
**A.** The IC50 was 8.74 µM (active).

**Q.** Which EC50 [5] does the source give for `COc1ccccc1-n1cnc2cc(NCc3ccccc3O)ccc21` here?
**A.** The EC50 was 1.51 µM (active).

**Q.** With `COc1cc(/C=C2\SC(=S)N(N(C)c3ccccc3)C2=O)ccc1O` as the compound, how does the IC50 [6] read?
**A.** The IC50 was 13.1 µM (inactive).

**Q.** Which EC50 [7] does the source give for `CCN(CC)c1ccc(/C=C(\C#N)C(N)=S)cc1` here?
**A.** Its EC50 is 22.7 µM (active).

**Q.** And the EC50 [8]?
**A.** The EC50 was > 112 µM (not active).

**Q.** What about the IC50 [9] of the same compound?
**A.** Its IC50 is 5.92 µM (not active).

**Q.** What about the IC50 (Nonstructural protein 1) of the same compound?
**A.** Its IC50 is 39.1 µM (active).

**Q.** For `Cc1sc2ncnc(N3CCN(S(=O)(=O)c4ccc(Br)cc4)CC3)c2c1C`, which EC50 (HEK293 [10]) is on record?
**A.** Its EC50 is 4.21 µM (active).

**Q.** And the IC50 (HEK293 [11])?
**A.** Its IC50 is 4.16 µM (active).

**Q.** And the IC50 (HEK293 [12])?
**A.** The IC50 was 11.6 µM (active).

**Q.** And the EC50 [13]?
**A.** The EC50 was 4.22 µM (active).

**Q.** And the IC50 (HEK293 [14])?
**A.** The IC50 was 5.47 µM (active).

**Q.** What about the IC50 (HEK293 [15]) of the same compound?
**A.** The IC50 was > 20 µM (inactive).

**Q.** What about the AC50 [16] of the same compound?
**A.** Its AC50 is 3.59 µM (active).

**Q.** What about the AC50 [17] of the same compound?
**A.** Its AC50 is 47.8 µM (active).

**Q.** What about the AC50 [18] of the same compound?
**A.** Its AC50 is 6.05 µM (active).

**Q.** And the AC50 [19]?
**A.** Its AC50 is 21.5 µM (active).

**Q.** What about the AC50 [20] of the same compound?
**A.** Its AC50 is 21.2 µM (active).
